Laboratory results reported in PMC8286840, “Identifying SARS-CoV-2 antiviral compounds by screening for small molecule inhibitors of Nsp3 papain-like protease” (Biochemical Journal, 2021).
Where a name gives a salt, the structure may show the parent alone. Read-outs that look alike come from different tables or passages of the source.

Tests used:
[1] = molecular target: T1, SARS-CoV-2 PLpro (nsp3 1564–1878) (Severe acute respiratory syndrome coronavirus 2, UniProt P0DTD1); assay: biochemical; design: FRET-quenched peptide (Pro3) cleavage by PLpro, 10 min pre-incubation, slope over 20 min, normalised to no-compound control; details: high concentration screen, read-out: % of control remaining
[2] = molecular target: T1, SARS-CoV-2 PLpro (nsp3 1564–1878); assay: biochemical; design: FRET-quenched peptide (Pro3) cleavage by PLpro, 10 min pre-incubation, slope over 20 min, normalised to no-compound control; details: low concentration screen, read-out: % of control remaining

Cc1c(C(=O)NN2CCCCC2)nn(-c2ccc(Cl)cc2Cl)c1-c1ccc(Cl)cc1 [Rimonabant (Hydrochloride)]
remaining activity at 3.75 µM ([1]; Well no.=8011): 90.1%
remaining activity at 1.25 µM ([2]; Well no.=8011): 99.6%

Cc1c(C(=O)NN2CCCCC2)nn(-c2ccc(Cl)cc2Cl)c1-c1ccc(Cl)cc1 [Rimonabant]
remaining activity at 3.75 µM ([1]; Well no.=8438): 97%
remaining activity at 1.25 µM ([2]; Well no.=8438): 92.2%

COC(=O)N(C)c1c(N)nc(-c2nn(Cc3ccccc3F)c3ncccc23)nc1N [Riociguat]
remaining activity at 3.75 µM ([1]; Well no.=6654): 108%
remaining activity at 1.25 µM ([2]; Well no.=6654): 107%

O=P(O)(O)C(O)(Cc1cccnc1)P(=O)(O)O [Risedronate sodium]
remaining activity at 3.75 µM ([1]; Well no.=4819): 102%
remaining activity at 1.25 µM ([2]; Well no.=4819): 104%

O=P(O)(O)C(O)(Cc1cccnc1)P(=O)(O)O [Risedronic acid]
remaining activity at 3.75 µM ([1]; Well no.=1989): 96.9%
remaining activity at 1.25 µM ([2]; Well no.=1989): 97.8%

Cc1nc2n(c(=O)c1CCN1CCC(c3noc4cc(F)ccc34)CC1)CCCC2 [Risperidone]
remaining activity at 3.75 µM ([1]; Well no.=1306): 103%
remaining activity at 3.75 µM ([1]; Well no.=1606): 102%
remaining activity at 1.25 µM ([2]; Well no.=1306): 103%
remaining activity at 1.25 µM ([2]; Well no.=1606): 100%

Cc1nc2sccn2c(=O)c1CCN1CCC(=C(c2ccc(F)cc2)c2ccc(F)cc2)CC1 [Ritanserin]
remaining activity at 3.75 µM ([1]; Well no.=1352): 96.7%
remaining activity at 1.25 µM ([2]; Well no.=1352): 94.6%

CC(C)c1nc(CN(C)C(=O)N[C@H](C(=O)N[C@@H](Cc2ccccc2)C[C@H](O)[C@H](Cc2ccccc2)NC(=O)OCc2cncs2)C(C)C)cs1 [Ritonavir]
remaining activity at 3.75 µM ([1]; Well no.=4721): 102%
remaining activity at 1.25 µM ([2]; Well no.=4721): 102%

O=C(NC[C@H]1CN(c2ccc(N3CCOCC3=O)cc2)C(=O)O1)c1ccc(Cl)s1 [Rivaroxaban]
remaining activity at 3.75 µM ([1]; Well no.=8390): 88.4%
remaining activity at 1.25 µM ([2]; Well no.=8390): 93.8%

CCN(C)C(=O)Oc1cccc([C@H](C)N(C)C)c1 [Rivastigmine]
remaining activity at 3.75 µM ([1]; Well no.=1722): 96.3%
remaining activity at 1.25 µM ([2]; Well no.=1722): 95.2%

CN(C)CCc1c[nH]c2ccc(Cn3cncn3)cc12 [Rizatriptan (benzoate)]
remaining activity at 3.75 µM ([1]; Well no.=6174): 89.9%
remaining activity at 1.25 µM ([2]; Well no.=6174): 93.4%

NC(=O)c1ccc(OCC(O)CN2CC=C(c3ccc(F)cc3)CC2)cc1 (centres unmarked) [Ro 8-4304]
remaining activity at 3.75 µM ([1]; Well no.=1160): 99.3%
remaining activity at 1.25 µM ([2]; Well no.=1160): 98.3%

Cc1ncc(CN2CC=C(c3ccccc3)CC2)c(N)n1 [Ro 10-5824 (dihydrochloride)]
remaining activity at 3.75 µM ([1]; Well no.=7039): 106%
remaining activity at 1.25 µM ([2]; Well no.=7039): 105%

NCCNC(=O)c1ccc(Cl)cc1 [Ro 16-6491 hydrochloride]
remaining activity at 3.75 µM ([1]; Well no.=1448): 92.5%
remaining activity at 1.25 µM ([2]; Well no.=1448): 94.7%

CCCCOc1cc(CC2CNC(=O)N2)ccc1OC (centres unmarked) [Ro 20-1724]
remaining activity at 3.75 µM ([1]; Well no.=225): 100%
remaining activity at 1.25 µM ([2]; Well no.=225): 102%

C[C@@H](CN1CCC(Cc2ccccc2)CC1)[C@@H](O)c1ccc(O)cc1 [Ro 25-6981 hydrochloride]
remaining activity at 3.75 µM ([1]; Well no.=1350): 102%
remaining activity at 1.25 µM ([2]; Well no.=1350): 99.4%

Cn1cc(C2=C(c3cn(CCCSC(=N)N)c4ccccc34)C(=O)NC2=O)c2ccccc21 [Ro 31-8220 mesylate - 3-[3-[2,5-Dihydro-4-(1-methyl-1H-indol-3-yl)-2,5-dioxo-1H-pyrrol-3-yl]-1H-indol-1-yl]propyl carbamimidothioic acid ester mesylate]
remaining activity at 3.75 µM ([1]; Well no.=2482): 102%
remaining activity at 1.25 µM ([2]; Well no.=2482): 104%

O=C(c1cc(O)c(O)c([N+](=O)[O-])c1)c1ccccc1F [Ro 41-0960]
remaining activity at 3.75 µM ([1]; Well no.=1162): 104%
remaining activity at 1.25 µM ([2]; Well no.=1162): 102%

NCCNC(=O)c1ncsc1-c1cccc(F)c1 [Ro 41-1049 hydrochloride]
remaining activity at 3.75 µM ([1]; Well no.=1496): 94.1%
remaining activity at 1.25 µM ([2]; Well no.=1496): 95.5%

COc1ccc(S(=O)(=O)Nc2nc(-c3cccc([N+](=O)[O-])c3)cs2)cc1OC [Ro 61-8048]
remaining activity at 3.75 µM ([1]; Well no.=5865): 106%
remaining activity at 1.25 µM ([2]; Well no.=5865): 109%

CCCCOC(=O)NC(=O)C1c2ccccc2Oc2ccccc21 [Ro 67-4853]
remaining activity at 3.75 µM ([1]; Well no.=5989): 99.5%
remaining activity at 1.25 µM ([2]; Well no.=5989): 102%

Cc1ccc(S(=O)(=O)N2CCC[C@H]2c2ccc(F)cc2)cc1 [Ro 67-7476]
remaining activity at 3.75 µM ([1]; Well no.=8053): 102%
remaining activity at 1.25 µM ([2]; Well no.=8053): 99.6%

Cn1cc(C2=C(c3cn(CCCSC(=N)N)c4ccccc34)C(=O)NC2=O)c2ccccc21 [Ro-31-8220]
remaining activity at 3.75 µM ([1]; Well no.=2633): 96.9%
remaining activity at 1.25 µM ([2]; Well no.=2633): 98.6%

O=C(CCCCCCNC(=O)c1cnc(N(c2ccccc2)c2ccccc2)nc1)NO [Rocilinostat (ACY-1215)]
remaining activity at 3.75 µM ([1]; Well no.=4786): 102%
remaining activity at 1.25 µM ([2]; Well no.=4786): 101%

C=CC[N+]1([C@H]2C[C@H]3[C@@H]4CC[C@H]5C[C@H](O)[C@@H](N6CCOCC6)C[C@]5(C)[C@H]4CC[C@]3(C)[C@H]2OC(C)=O)CCCC1 [Rocuronium bromide]
remaining activity at 3.75 µM ([1]; Well no.=2019): 105%
remaining activity at 1.25 µM ([2]; Well no.=2019): 103%

CS(=O)(=O)c1ccc(C2=C(c3ccccc3)C(=O)OC2)cc1 [Rofecoxib]
remaining activity at 3.75 µM ([1]; Well no.=1724): 100%
remaining activity at 1.25 µM ([2]; Well no.=1724): 101%

O=C(Nc1c(Cl)cncc1Cl)c1ccc(OC(F)F)c(OCC2CC2)c1 [Roflumilast]
remaining activity at 3.75 µM ([1]; Well no.=5877): 94.8%
remaining activity at 1.25 µM ([2]; Well no.=5877): 94.1%

C[C@@H](OC[C@@]1(c2ccccc2)CC[C@]2(CCC(=O)N2)CN1)c1cc(C(F)(F)F)cc(C(F)(F)F)c1 [Rolapitant]
remaining activity at 3.75 µM ([1]; Well no.=7469): 96.2%
remaining activity at 1.25 µM ([2]; Well no.=7469): 104%

COc1ccc(C2CNC(=O)C2)cc1OC1CCCC1 (centres unmarked) [Rolipram]
remaining activity at 3.75 µM ([1]; Well no.=1302): 103%
remaining activity at 3.75 µM ([1]; Well no.=2152): 102%
remaining activity at 1.25 µM ([2]; Well no.=1302): 102%
remaining activity at 1.25 µM ([2]; Well no.=2152): 101%

Cn1c([N+](=O)[O-])cnc1COC(N)=O [Ronidazole]
remaining activity at 3.75 µM ([1]; Well no.=4700): 96.7%
remaining activity at 1.25 µM ([2]; Well no.=4700): 99.8%

CCCN(CCC)CCc1cccc2c1CC(=O)N2 [Ropinirole (hydrochloride)]
remaining activity at 3.75 µM ([1]; Well no.=8205): 90.6%
remaining activity at 1.25 µM ([2]; Well no.=8205): 99.3%

CCCN(CCC)CCc1cccc2c1CC(=O)N2 [Ropinirole hydrochloride]
remaining activity at 3.75 µM ([1]; Well no.=1444): 97.7%
remaining activity at 1.25 µM ([2]; Well no.=1444): 93.6%

CCCN1CCCC[C@H]1C(=O)Nc1c(C)cccc1C [Ropivacaine HCl]
remaining activity at 3.75 µM ([1]; Well no.=4698): 96.6%
remaining activity at 1.25 µM ([2]; Well no.=4698): 99%

CCCN1CCCC[C@H]1C(=O)Nc1c(C)cccc1C [Ropivacaine hydrochloride]
remaining activity at 3.75 µM ([1]; Well no.=5891): 97.5%
remaining activity at 1.25 µM ([2]; Well no.=5891): 98.9%

CN(C(=O)c1c(O)c2ccccc2n(C)c1=O)c1ccccc1 [Roquinimex]
remaining activity at 3.75 µM ([1]; Well no.=6160): 96.9%
remaining activity at 1.25 µM ([2]; Well no.=6160): 103%
